Where two headings read alike, the source gives them in different places.
Molecular target: EBI2 (Homo sapiens, UniProt P32249)
Assay: Cell-based luminescent assay (EBI2 modulation)
Procedure, shortened: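 Cells plated overnight at 37° C, then exposed to compound at 4-5 uM final with 80 nM 7a,25-OHC agonist for 60 min at 37° C. Luminescence read after 60 min detection at 25° C in the dark; values normalized to neutral and stimulator controls and plate-pattern corrected.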

[1] = cell-based luminescence, 7a,25-OHC final assay concentration 80 nM, 60 minutes incubation, read-out: IC50

EBI2, sequence (P32249 whole entry): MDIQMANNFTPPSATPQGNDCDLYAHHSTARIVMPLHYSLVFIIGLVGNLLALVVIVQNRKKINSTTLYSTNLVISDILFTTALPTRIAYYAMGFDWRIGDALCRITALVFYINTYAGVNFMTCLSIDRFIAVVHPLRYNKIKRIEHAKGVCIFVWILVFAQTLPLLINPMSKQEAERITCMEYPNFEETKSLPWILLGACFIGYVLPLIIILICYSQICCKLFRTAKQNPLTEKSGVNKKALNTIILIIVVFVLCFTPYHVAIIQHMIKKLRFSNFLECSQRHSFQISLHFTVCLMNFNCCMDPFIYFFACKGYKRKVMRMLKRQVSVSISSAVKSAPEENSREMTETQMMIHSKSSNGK

IC50 [1] | SMILES | IC50
500 to 5000 nM | O=C(O)c1ccc(CN2CCN(C(=O)c3cc4cc(Cl)ccc4[nH]3)CC2)cc1 [Compound C177, 4-({4-[(5-chloroindol-2-yl)carbonyl]piperazinyl}methyl)benzoic acid] | 
500 to 5000 nM | O=C(c1cc2cccc([N+](=O)[O-])c2[nH]1)N1CCN(C(c2ccccc2)c2ccccc2)CC1 [Compound C178, 4-(diphenylmethyl)piperazinyl 7-nitroindol-2-yl ketone] | 
500 to 5000 nM | O=C(C#Cc1ccc(F)cc1)N1CCN(Cc2ccc(F)cc2C(F)(F)F)CC1 [Compound C179, 3-(4-fluorophenyl)-1-(4-{[4-fluoro-2-(trifluoromethyl)phenyl]methyl}piperazinyl)prop-2-yn-1-one] | 
500 to 5000 nM | O=C(c1cc2ccc(Br)cc2[nH]1)N1CCN(Cc2ccc(Br)cc2)CC1 [Compound C180, 6-bromoindol-2-yl 4-[(4-bromophenyl)methyl]piperazinyl ketone] | 
500 to 5000 nM | O=C(Nc1ccc(F)cc1)c1ccc(CN2CCN(C(=O)c3cc4cc(Cl)ccc4[nH]3)CC2)cc1 [Compound C181, [4-({4-[(5-chloroindol-2-yl)carbonyl]piperazinyl}methyl)phenyl]-N-(4-fluorophenyl)carboxamide] | 
500 to 5000 nM | O=C(c1cc2cc(Cl)ccc2[nH]1)N1CCN(c2ccccn2)CC1 [Compound C182, 5-chloroindol-2-yl 4-(2-pyridyl)piperazinyl ketone] | 
500 to 5000 nM | O=C(c1ccc2nc(C(F)(F)F)[nH]c2c1)N1CCN(C(=O)c2cc3cc(Cl)ccc3[nH]2)CC1 [Compound C183, 5-chloroindol-2-yl 4-{[2-(trifluoromethyl)benzimidazol-5-yl]carbonyl}piperazinyl ketone] | 
500 to 5000 nM | O=C(NC1CCN(C(=O)c2cc3cc(Cl)ccc3[nH]2)CC1)c1ccc(Cl)cc1 [Compound C184, N-{1-[(5-chloroindol-2-yl)carbonyl](4-piperidyl)}(4-chlorophenyl)carboxamide] | 
500 to 5000 nM | Cc1c(C(=O)N2CCN(C(c3ccccc3)c3ccccc3)CC2)sc2ccccc12 [Compound C185, 4-(diphenylmethyl)piperazinyl 3-methylbenzo[b]thiophen-2-yl ketone] | 
500 to 5000 nM | O=C(C=Cc1ccc2c(c1)OCO2)N1CCN(Cc2ccc(F)cc2C(F)(F)F)CC1 [Compound C186, 3-(2H-benzo[3,4-d]1,3-dioxolan-5-yl)-1-(4-{[4-fluoro-2-(trifluoromethyl)phenyl]methyl}piperazinyl)prop-2-en-1-one] | 
500 to 5000 nM | O=C(Nc1ccc(F)cc1)c1cccc(CN2CCN(C(=O)c3cc4cc(Cl)ccc4[nH]3)CC2)c1 [Compound C187, [3-({4-[(5-chloroindol-2-yl)carbonyl]piperazinyl}methyl)phenyl]-N-(4-fluorophenyl)carboxamide] | 
500 to 5000 nM | O=C(O)c1cccc(CN2CCN(C(=O)c3cc4cc(Cl)ccc4[nH]3)CC2)c1 [Compound C188, 3-({4-[(5-chloroindol-2-yl)carbonyl]piperazinyl}methyl)benzoic acid] | 
500 to 5000 nM | O=C(c1cc2ccc(F)cc2[nH]1)N1CCN(C(=O)c2ccc(F)cc2C(F)(F)F)CC1 [Compound C189, 6-fluoroindol-2-yl 4-{[4-fluoro-2-(trifluoromethyl)phenyl]carbonyl}piperazinyl ketone] | 
500 to 5000 nM | CC(C)(C)c1ccc(S(=O)(=O)N2CCN(C(=O)/C=C/c3ccccc3F)CC2)cc1 [Compound C190, (2E)-1-(4-{[4-(tert-butyl)phenyl]sulfonyl}piperazinyl)-3-(2-fluorophenyl)prop-2-en-1-one] | 
500 to 5000 nM | O=C(/C=C/c1ccccc1)N1CCN(Cc2ccccn2)CC1 [Compound C191, (2E)-3-phenyl-1-[4-(2-pyridylmethyl)piperazinyl]prop-2-en-1-one] | 
500 to 5000 nM | O=C(/C=C/c1ccc(F)cc1)N1CCCN(C(c2ccccc2)c2ccccc2)CC1 [Compound C192, (2E)-1-[4-(diphenylmethyl)(1,4-diazaperhydroepinyl)]-3-(4-fluorophenyl)prop-2-en-1-one] | 
500 to 5000 nM | O=C(c1cc2ncccc2[nH]1)N1CCN(C(c2ccccc2)c2ccccc2)CC1 [Compound C193, 4-(diphenylmethyl)piperazinyl pyrrolo[4,5-b]pyridin-2-yl ketone] | 
500 to 5000 nM | O=C(c1ccc(P(=O)(O)O)cc1)N1CCN(C(=O)c2cc3cc(Cl)ccc3[nH]2)CC1 [Compound C194, 5-chloroindol-2-yl 4-[(4-phosphonophenyl)carbonyl]piperazinyl ketone] | 
500 to 5000 nM | O=C(C#Cc1cc(F)cc(F)c1)N1CCN(Cc2ccc(C(F)(F)F)cc2)CC1 [Compound C195, 3-(3,5-difluorophenyl)-1-(4-{[4-(trifluoromethyl)phenyl]methyl}piperazinyl)prop-2-yn-1-one] | 

IC50 [1] | SMILES | IC50
500 to 5000 nM | Cc1ccccc1/C=C/C(=O)N1CCN(S(=O)(=O)c2ccccc2)CC1 [Compound C196, (2E)-3-(2-methylphenyl)-1-[4-(phenylsulfonyl)piperazinyl]prop-2-en-1-one] | 
500 to 5000 nM | O=C(C#Cc1cc(F)cc(F)c1)N1CCN(Cc2ccc(F)cc2)CC1 [Compound C197, 3-(3,5-difluorophenyl)-1-{4-[(4-fluorophenyl)methyl]piperazinyl}prop-2-yn-1-one] | 
500 to 5000 nM | O=C(/C=C/c1ccc(F)cc1)N1CCCN(S(=O)(=O)/C=C/c2ccccc2)CC1 [Compound C198, (2E)-1-{4-[((1E)-2-phenylvinyl)sulfonyl](1,4-diazaperhydroepinyl)}-3-(4-fluorophenyl)prop-2-en-1-one] | 
500 to 5000 nM | O=C(c1cc2cc(Cl)ccc2[nH]1)N1CCC(N2CCOCC2)CC1 [Compound C199, 5-chloroindol-2-yl 4-morpholin-4-ylpiperidyl ketone] | 
< 100 nM | O=C(c1ccc(C(F)(F)F)c(F)c1)N1CCN(C(=O)c2cc3cc(C(F)(F)F)ccc3[nH]2)CC1 [Compound C200, 4-{[3-fluoro-4-(trifluoromethyl)phenyl]carbonyl}piperazinyl 5-(trifluoromethyl)indol-2-yl ketone] | 
 | Cc1cccc(CN2CCN(C(=O)/C=C/c3ccccc3)CC2)c1 [Compound C201, (2E)-1-{4-[(3-methylphenyl)methyl]piperazinyl}-3-phenylprop-2-en-1-one] | < 100 nM
< 100 nM | O=C(/C=C/c1ccccc1)N1CCN(Cc2ccc(Br)cc2)CC1 [Compound C203, (2E)-1-{4-[(4-bromophenyl)methyl]piperazinyl}-3-phenylprop-2-en-1-one] | 
< 100 nM | O=C(c1ccc(-c2nnn[nH]2)cc1)N1CCN(C(=O)c2cc3cc(Cl)ccc3[nH]2)CC1 [Compound C204, 5-chloroindol-2-yl 4-[(4-(1H-1,2,3,4-tetraazol-5-yl)phenyl)carbonyl]piperazinyl ketone] | 
< 100 nM | O=C(/C=C/c1ccc(F)cc1)N1CCN(S(=O)(=O)c2ccccc2)CC1 [Compound C205, (2E)-3-(4-fluorophenyl)-1-[4-(phenylsulfonyl)piperazinyl]prop-2-en-1-one] | 
< 100 nM | O=C(/C=C/c1ccc(F)cc1)N1CCN(S(=O)(=O)c2ccc([N+](=O)[O-])cc2)CC1 [Compound C206, (2E)-3-(4-fluorophenyl)-1-{4-[(4-nitrophenyl)sulfonyl]piperazinyl}prop-2-en-1-one] | 
< 100 nM | O=C(c1cc2cc(Br)ccc2[nH]1)N1CCN(C(=O)c2ccc(F)cc2C(F)(F)F)CC1 [Compound C208, 5-bromoindol-2-yl 4-{[4-fluoro-2-(trifluoromethyl)phenyl]carbonyl}piperazinyl ketone] | 
< 100 nM | O=C(/C=C/c1ccc(F)cc1)N1CCN(S(=O)(=O)c2cccc(Br)c2)CC1 [Compound C209, (2E)-1-{4-[(3-bromophenyl)sulfonyl]piperazinyl}-3-(4-fluorophenyl)prop-2-en-1-one] | 
< 100 nM | O=C(/C=C/c1ccc(Cl)c(Cl)c1)N1CCN(Cc2ccc(F)cc2)CC1 [Compound C210, (2E)-3-(3,4-dichlorophenyl)-1-{4-[(4-fluorophenyl)methyl]piperazinyl}prop-2-en-1-one] | 
< 100 nM | O=C(c1cc2cc(C(F)(F)F)ccc2[nH]1)N1CCN(Cc2ccc(F)cc2)CC1 [Compound C211, 4-[(4-fluorophenyl)methyl]piperazinyl 5-(trifluoromethyl)indol-2-yl ketone] | 
< 100 nM | O=C(/C=C/c1ccc(F)cc1)N1CCN(S(=O)(=O)c2cccc(F)c2)CC1 [Compound C212, (2E)-3-(4-fluorophenyl)-1-{4-[(3-fluorophenyl)sulfonyl]piperazinyl}prop-2-en-1-one] | 
< 100 nM | O=C(c1cc2ccc(F)cc2[nH]1)N1CCN(C(c2ccccc2)c2ccccc2)CC1 [Compound C215, 4-(diphenylmethyl)piperazinyl 6-fluoroindol-2-yl ketone] | 
< 100 nM | O=C(C=Cc1ccc2c(c1)OCO2)N1CCN(C(=O)c2ccc(F)cc2)CC1 [Compound C216, 3-(2H-benzo[3,4-d]1,3-dioxolen-5-yl)-1-{4-[(4-fluorophenyl)carbonyl]piperazinyl}prop-2-en-1-one] | 
< 100 nM | O=C(c1cc2cc(-c3ccccc3)ccc2[nH]1)N1CCN(C(c2ccccc2)c2ccccc2)CC1 [Compound C217, 4-(diphenylmethyl)piperazinyl 5-phenylindol-2-yl ketone] | 

SMILES | IC50 [1] | IC50
CC(C)(C)c1ccc(S(=O)(=O)N2CCN(C(=O)/C=C/c3ccc(F)cc3)CC2)cc1 [Compound C202, (2E)-1-(4-{[4-(tert-butyl)phenyl]sulfonyl}piperazinyl)-3-(4-fluorophenyl)prop-2-en-1-one] | < 100 nM | 
CCOc1ccc(/C=C/C(=O)N2CCN(S(=O)(=O)c3ccc(Br)cc3)CC2)cc1 [Compound C213, (2E)-1-{4-[(4-bromophenyl)sulfonyl]piperazinyl}-3-(4-ethoxyphenyl)prop-2-en-1-one] | < 100 nM | 
O=C(/C=C/c1ccc(Cl)c(Cl)c1)N1CCN(Cc2ccc(Cl)cc2)CC1 [Compound C214, (2E)-3-(3,4-dichlorophenyl)-1-{4-[(4-chlorophenyl)methyl]piperazinyl}prop-2-en-1-one] | < 100 nM | 

Source: patent US9776979B2, “EBI2 modulators” (Sanford-Burnham Medical Research Institute, priority 2013, dated 2017)
